Converted amounts (≈) assume the structure as drawn.
Experiments:
[1] = Aqueous solubility of the compound incubated for 12 hrs by UV-Vis spectrophotometry; assay type: physicochemical; conditions: buffer
[2] = test system: Staphylococcus aureus; experiment: Antibacterial activity against methicillin-resistant Staphylococcus aureus 575 assessed as inhibition of bacterial growth incubated for 24 hrs by broth microdilution method; assay type: functional
[3] = test system: Klebsiella pneumoniae; experiment: Antibacterial activity against multidrug-resistant Klebsiella pneumoniae 893 assessed as inhibition of bacterial growth incubated for 24 hrs by broth microdilution method; assay type: functional
[4] = Cytotoxicity against human HepG2 cells assessed as reduction in cell viability incubated for 24 hrs by CCK8 assay; assay type: toxicity, cell-based
[5] = test system: Staphylococcus aureus; experiment: Antibacterial activity against methicillin-resistant Staphylococcus aureus 222 assessed as inhibition of bacterial growth incubated for 24 hrs by broth microdilution method; assay type: functional
[6] = Cytotoxicity against human A549 cells assessed as reduction in cell viability incubated for 24 hrs by CCK8 assay; assay type: toxicity, cell-based
[7] = test system: Enterococcus; experiment: Antibacterial activity against vancomycin-resistant Enterococcus 80 assessed as inhibition of bacterial growth incubated for 24 hrs by broth microdilution method; assay type: functional
[8] = test system: Staphylococcus aureus; experiment: Antibacterial activity against methicillin-resistant Staphylococcus aureus 171 assessed as inhibition of bacterial growth incubated for 24 hrs by broth microdilution method; assay type: functional
[9] = test system: Pseudomonas aeruginosa; experiment: Antibacterial activity against multidrug-resistant Pseudomonas aeruginosa 126 assessed as inhibition of bacterial growth incubated for 24 hrs by broth microdilution method; assay type: functional
[10] = Cytotoxicity against human HEK293 cells assessed as reduction in cell viability incubated for 24 hrs by CCK8 assay; assay type: toxicity, cell-based
[11] = test system: Acinetobacter baumannii; experiment: Antibacterial activity against carbapenem-resistant Acinetobacter baumannii 882 assessed as inhibition of bacterial growth incubated for 24 hrs by broth microdilution method; assay type: functional
[12] = test system: Staphylococcus aureus; experiment: Antibacterial activity against methicillin-resistant Staphylococcus aureus 206 assessed as inhibition of bacterial growth incubated for 24 hrs by broth microdilution method; assay type: functional
[13] = test system: Staphylococcus aureus; experiment: Antibacterial activity against methicillin-resistant Staphylococcus aureus 596 assessed as inhibition of bacterial growth incubated for 24 hrs by broth microdilution method; assay type: functional

Compound | solubility at 12 h [1] | further results
C=C[C@]1(C)C[C@@H](OC(=O)CSc2nc3cc[n+](Cc4cc(F)c(F)cc4F)cc3[nH]2)[C@]2(C)[C@H](C)CC[C@]3(CCC(=O)[C@H]32)[C@@H](C)[C@@H]1O.[Br-] | 539 µg/mL | 
C=C[C@]1(C)C[C@@H](OC(=O)CSc2nc3cc[n+](Cc4ccc(-c5ccccc5)cc4)cc3s2)[C@]2(C)[C@H](C)CC[C@]3(CCC(=O)[C@H]32)[C@@H](C)[C@@H]1O.[Br-] | 391 µg/mL | 
C=C[C@]1(C)C[C@@H](OC(=O)CSc2nc3cc[n+](Cc4ccc(C(F)(F)F)cc4)cc3[nH]2)[C@]2(C)[C@H](C)CC[C@]3(CCC(=O)[C@H]32)[C@@H](C)[C@@H]1O.[Br-] | 337 µg/mL | 
C=C[C@]1(C)C[C@@H](OC(=O)CSc2nc3cc[n+](Cc4ccc(-c5ccccc5)cc4)cc3[nH]2)[C@]2(C)[C@H](C)CC[C@]3(CCC(=O)[C@H]32)[C@@H](C)[C@@H]1O.[Br-] | 367 µg/mL | 
C=C[C@]1(C)C[C@@H](OC(=O)CSc2nc3cc[n+](Cc4cc(OC)cc(OC)c4)cc3[nH]2)[C@]2(C)[C@H](C)CC[C@]3(CCC(=O)[C@H]32)[C@@H](C)[C@@H]1O.[Br-] | 176 µg/mL | 
Br.C=C[C@]1(C)C[C@@H](OC(=O)CSc2nc3cc[n+](Cc4ccc([N+](=O)[O-])cc4)cc3s2)[C@]2(C)[C@H](C)CC[C@]3(CCC(=O)[C@H]32)[C@@H](C)[C@@H]1O | 648 µg/mL | 
C=C[C@]1(C)C[C@@H](OC(=O)CSc2nc3cc[n+](Cc4ccc(C(C)(C)C)cc4)cc3[nH]2)[C@]2(C)[C@H](C)CC[C@]3(CCC(=O)[C@H]32)[C@@H](C)[C@@H]1O.[Br-] | 486 µg/mL | 
C=C[C@]1(C)C[C@@H](OC(=O)CSc2nc3cc[n+](Cc4ccc(F)cc4)cc3s2)[C@]2(C)[C@H](C)CC[C@]3(CCC(=O)[C@H]32)[C@@H](C)[C@@H]1O.[Br-] | 395 µg/mL | 
C=C[C@]1(C)C[C@@H](OC(=O)CSc2nc3cc[n+](Cc4cc(F)ccc4C#N)cc3s2)[C@]2(C)[C@H](C)CC[C@]3(CCC(=O)[C@H]32)[C@@H](C)[C@@H]1O.[Br-] | 168 µg/mL | 
C=C[C@]1(C)C[C@@H](OC(=O)CS[C@@H]2C[C@H]3CC[C@@H](C2)N3C)[C@]2(C)[C@H](C)CC[C@]3(CCC(=O)[C@H]32)[C@@H](C)[C@@H]1O [RETAPAMULIN] |  | MIC [2]: 32 µg/mL (≈ 61.8 µM); MIC [3]: 128 µg/mL (≈ 247 µM); CC50 at 24 h [4]: 61.1 µM; MIC [5]: 128 µg/mL (≈ 247 µM); CC50 at 24 h [6]: 71.5 µM; MIC [7]: > 128 µg/mL; MIC [8]: 128 µg/mL (≈ 247 µM); MIC [9]: 64 µg/mL (≈ 124 µM); CC50 at 24 h [10]: 57.5 µM; MIC [11]: 64 µg/mL (≈ 124 µM); MIC [12]: 64 µg/mL (≈ 124 µM); MIC [13]: 32 µg/mL (≈ 61.8 µM)
C=C[C@]1(C)C[C@@H](OC(=O)CSc2nc3cc[n+](Cc4cc(F)ccc4C#N)cc3[nH]2)[C@]2(C)[C@H](C)CC[C@]3(CCC(=O)[C@H]32)[C@@H](C)[C@@H]1O.[Br-] | 91.8 µg/mL | 
C=C[C@]1(C)C[C@@H](OC(=O)CSc2nc3cc[n+](Cc4ccc(C(C)(C)C)cc4)cc3s2)[C@]2(C)[C@H](C)CC[C@]3(CCC(=O)[C@H]32)[C@@H](C)[C@@H]1O.[Br-] | 453 µg/mL | 
C=C[C@]1(C)C[C@@H](OC(=O)CSc2nc3cc[n+](Cc4ccc(OC)cc4)cc3s2)[C@]2(C)[C@H](C)CC[C@]3(CCC(=O)[C@H]32)[C@@H](C)[C@@H]1O.[Br-] | 177 µg/mL | 
C=C[C@]1(C)C[C@@H](OC(=O)CSc2nc3cc[n+](Cc4ccc(Cl)cc4)cc3s2)[C@]2(C)[C@H](C)CC[C@]3(CCC(=O)[C@H]32)[C@@H](C)[C@@H]1O.[Br-] | 449 µg/mL | 
C=C[C@]1(C)C[C@@H](OC(=O)CSc2nc3cc[n+](Cc4cc(C)cc(C)c4)cc3s2)[C@]2(C)[C@H](C)CC[C@]3(CCC(=O)[C@H]32)[C@@H](C)[C@@H]1O.[Br-] | 392 µg/mL | 
